Twelve compounds from ChEMBL document CHEMBL1201862, “PubChem BioAssay data set” (2004) can be followed below.

Some test systems named below: SR; SNB-19; DMS-273; UACC-62; CAKI-1; SK-MEL-2; SNB-75; EKVX; SK-OV-3; M14; HCT-15; MOLT-4; SW-620; NCI-H460; A549; NCI-H23; HCC 2998; Malme-3M; HOP-92.
Assay in all cases: inhibition of tumour cell growth, NCI panel, 48 h

SMILES strings stand for the structures.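 Results reflect a 48-hour exposure of cells in 96-well plates to compound at five concentrations. Abbreviation: GI50, concentration required for 50% inhibition of growth.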 The source made the active and inactive calls. Cut-off read from the data, not from the text of the source: active = GI50 up to about 1.1 µM and inactive = higher.

Take `Cc1c(C(=O)Nc2ccc(Cl)c(C(F)(F)F)c2)oc2cc(O)ccc2/c1=N\NC(N)=S`: the GI50 with SR, in the assay with SNB-19, in the assay with DMS-273, in the assay on UACC-62, with CAKI-1 and with SK-MEL-2 was > 100 µM (inactive) in each case. The GI50 in the assay on SNB-75 is > 100 µM (inactive); in the assay on EKVX, > 100 µM (inactive); in the assay on SK-OV-3, > 100 µM (inactive); with M14, > 100 µM (inactive); in the assay with HCT-15 it was over 100 µM; in the assay with MOLT-4, > 100 µM (inactive). Also, the GI50 in the assay on SW-620, with NCI-H460, in the assay on A549, in the assay on NCI-H23, with HCC 2998 and in the assay with Malme-3M was > 100 µM (inactive) throughout.
For `CCC1c2cc3n(c(=O)c2COC1O)Cc1c-3nc2ccccc2c1Cl` (stereo not given), the GI50 in the assay with SNB-19 was 30.3 µM (inactive); with DMS-273, 4.4 µM (inactive); in the assay with UACC-62 it was 6.95 µM (inactive); in the assay with CAKI-1, 23 µM (inactive); with SK-MEL-2, > 100 µM (inactive); in the assay with SNB-75, 20.5 µM (inactive). Besides, the GI50 is 66.1 µM (inactive) in the assay on EKVX; > 75 µM (inactive) in the assay on SK-OV-3; > 100 µM (inactive) with HOP-92; 25 µM (inactive) in the assay with M14; over 94.2 µM in the assay with HCT-15; 3.28 µM (inactive) in the assay with MOLT-4. Also, the GI50 in the assay with SW-620 is > 100 µM (inactive); with NCI-H460, 3.89 µM (inactive); in the assay with A549, 28.5 µM (inactive); in the assay on NCI-H23, 28.7 µM (inactive); in the assay with HCC 2998, 44.7 µM (inactive); in the assay with Malme-3M, > 100 µM (inactive).
As to `Clc1ccc(C2=Nc3ccccc3SC(c3cccs3)C2)cc1` (stereo not given), the GI50 with SR was 2.43 µM (inactive); with SNB-19, 16.4 µM (inactive); in the assay on DMS-273, 14 µM (inactive); with UACC-62 it was 15.3 µM (inactive); with CAKI-1 it was 15.5 µM (inactive); in the assay on SNB-75, 16.9 µM (inactive). The GI50 was 17.5 µM (inactive) with EKVX; 16.8 µM (inactive) in the assay with SK-OV-3; 16.4 µM (inactive) in the assay on M14; 14 µM in the assay with HCT-15; 20.9 µM (inactive) with MOLT-4; 13.1 µM (inactive) in the assay on SW-620. For the same compound, the GI50 with NCI-H460 was 15 µM (inactive); with A549 it was 17.2 µM (inactive); in the assay with NCI-H23 it was 14.1 µM (inactive); in the assay on HCC 2998 it was 17 µM (inactive); in the assay with Malme-3M it was > 10 µM (inactive).
Take `COc1ccc2c(c1)[n+]([O-])c(-c1nc3ccccc3s1)c(N)[n+]2[O-]`: the GI50 was 59.6 µM (inactive) in the assay on SR; > 100 µM (inactive) in the assay on SNB-19; > 100 µM (inactive) in the assay with DMS-273; > 100 µM (inactive) with CAKI-1; > 100 µM (inactive) in the assay with SK-MEL-2; 39.1 µM (inactive) in the assay on SNB-75. In addition, the GI50 in the assay with EKVX was > 100 µM (inactive); in the assay with SK-OV-3 it was > 100 µM (inactive); with HOP-92, > 100 µM (inactive); in the assay on M14, > 100 µM (inactive); in the assay on HCT-15, 89.5 µM; with MOLT-4, 43.8 µM (inactive). In addition, the GI50 was > 100 µM (inactive) with SW-620; 47.3 µM (inactive) in the assay on NCI-H460; > 100 µM (inactive) in the assay on A549; 64.9 µM (inactive) in the assay on NCI-H23; > 100 µM (inactive) with Malme-3M.
For `Cc1nc(-c2nc(C)c(C(=O)/C=C/c3ccc(N(C)C)cc3)s2)sc1C(=O)/C=C/c1ccc(N(C)C)cc1`, the GI50 with SR was > 100 µM (inactive); in the assay on SNB-19 it was 64.1 µM (inactive); in the assay with DMS-273, 39.1 µM (inactive); with UACC-62 it was 18.5 µM (inactive); in the assay with CAKI-1, > 100 µM (inactive); in the assay on SK-MEL-2, > 100 µM (inactive). Also, the GI50 in the assay on EKVX was > 100 µM (inactive); in the assay on SK-OV-3 it was > 100 µM (inactive); with M14 it was 38.5 µM (inactive); with HCT-15 it was 37.8 µM; in the assay with MOLT-4, > 100 µM (inactive); in the assay with SW-620 it was 31.2 µM (inactive). Besides, the GI50 in the assay with NCI-H460 was > 100 µM (inactive); in the assay on A549, 44.2 µM (inactive); with NCI-H23 it was > 100 µM (inactive); in the assay on HCC 2998 it was > 100 µM (inactive); with Malme-3M it was 66.4 µM (inactive).
For `Cc1ccc([S+](c2ccccc2)c2cc(C)ccc2C)cc1` (stereo not given), the GI50 in the assay on SR is 24.6 µM (inactive); in the assay on SNB-19, 4.38 µM (inactive); in the assay with DMS-273, 0.859 µM (active); in the assay on UACC-62 it was 4.52 µM (inactive); in the assay with CAKI-1, 26.7 µM (inactive); in the assay on SNB-75, < 0.01 µM (active). Further, the GI50 with EKVX is 1.17 µM (inactive); in the assay with M14 it was 22.2 µM (inactive); with MOLT-4, 3.65 µM (inactive); with SW-620, 5.64 µM (inactive); in the assay with NCI-H460 it was 6.38 µM (inactive); in the assay on A549, 7.03 µM (inactive). The GI50 with HCC 2998 is 1.7 µM (inactive); in the assay on Malme-3M, 0.271 µM (active).
As for `N=C(N)N/N=C/c1c[nH]c2ccccc12`, the GI50 in the assay on SR, in the assay with SNB-19, in the assay with DMS-273, in the assay with UACC-62, with CAKI-1 and with SK-MEL-2 was > 100 µM (inactive) in each case. For the same compound, the GI50 with SNB-75 was > 100 µM (inactive); with EKVX, > 100 µM (inactive); in the assay on SK-OV-3, > 100 µM (inactive); in the assay on M14, > 100 µM (inactive); with HCT-15, over 100 µM; in the assay on MOLT-4 it was > 100 µM (inactive). The GI50 in the assay on SW-620, with NCI-H460, with A549, with NCI-H23, in the assay on HCC 2998 and in the assay on Malme-3M was > 100 µM (inactive) in each case.
Turning to `CN(C)CCNC(=O)c1cccc2ccc(-c3ccncc3)nc12`, the GI50 in the assay on SNB-19 was 2.81 µM (inactive); in the assay on DMS-273 it was 1.1 µM (active); in the assay on UACC-62 it was 1.8 µM (inactive); with CAKI-1, 1.52 µM (inactive); in the assay on SK-MEL-2, 4.02 µM (inactive); with SNB-75 it was 3.2 µM (inactive). The GI50 is 2.47 µM (inactive) in the assay on EKVX; 2.22 µM (inactive) in the assay with SK-OV-3; 2.16 µM (inactive) with HOP-92; 4.11 µM (inactive) with M14; 1.44 µM with HCT-15; 0.306 µM (active) in the assay with MOLT-4. The GI50 is 1.33 µM (inactive) with SW-620; 0.403 µM (active) in the assay with NCI-H460; 0.817 µM (active) with A549; 1.8 µM (inactive) in the assay with NCI-H23; 1.96 µM (inactive) with HCC 2998.
With `CCOC(=O)/C(=C\c1ccccc1)C(=O)O`, the GI50 in the assay with SR, in the assay on SNB-19, with DMS-273, in the assay on UACC-62, in the assay on CAKI-1 and with SK-MEL-2 was > 100 µM (inactive) each time. Further, the GI50 in the assay on EKVX is > 100 µM (inactive); in the assay on SK-OV-3 it was > 100 µM (inactive); in the assay with HOP-92, > 100 µM (inactive); in the assay with M14, > 100 µM (inactive); with HCT-15 it was over 100 µM; with MOLT-4 it was > 100 µM (inactive). For the same compound, the GI50 in the assay on SW-620, with NCI-H460, in the assay with A549, in the assay on NCI-H23, in the assay with HCC 2998 and in the assay on Malme-3M was > 100 µM (inactive) each time.
Consider `CC1=C[C@H]2c3c([nH]c4ccccc34)C(c3c[nH]c4ccccc34)[C@H]2CC1` (stereo not given in full), for which the GI50 in the assay with DMS-273 is 4.33 µM (inactive); in the assay on UACC-62, 10.6 µM (inactive); in the assay on CAKI-1 it was 12.9 µM (inactive); with SNB-75 it was 6.44 µM (inactive); in the assay on EKVX, 12.4 µM (inactive); in the assay with SK-OV-3, 13.7 µM (inactive). Further, the GI50 in the assay with HOP-92 was 0.536 µM (active); in the assay with M14 it was 6.52 µM (inactive); with HCT-15, 5.41 µM; with MOLT-4, 2.15 µM (inactive); with SW-620, 6.37 µM (inactive); in the assay with NCI-H460, 2.84 µM (inactive). In addition, the GI50 in the assay on A549 is 10.1 µM (inactive); with NCI-H23 it was 3.33 µM (inactive); in the assay on HCC 2998, 3.48 µM (inactive); in the assay with Malme-3M it was 18.5 µM (inactive).
`O=C(/C=C/c1ccc[nH]1)c1ccccc1`: the GI50 in the assay with SR, with SNB-19, in the assay on DMS-273, with UACC-62, in the assay with CAKI-1 and with SK-MEL-2 was > 100 µM (inactive) in each case. Also, the GI50 in the assay on SNB-75 is 29.6 µM (inactive); with SK-OV-3, > 100 µM (inactive); in the assay on HOP-92, 56.2 µM (inactive); in the assay with M14, > 100 µM (inactive); in the assay on HCT-15, over 100 µM; with MOLT-4, > 100 µM (inactive). Moreover, the GI50 with SW-620, in the assay on NCI-H460, in the assay on A549, in the assay on NCI-H23 and in the assay with Malme-3M was > 100 µM (inactive) in each case.
Consider `Nc1cccc2c1C(=O)c1cccc(N)c1C2=O`, for which the GI50 with SNB-19, in the assay with DMS-273, in the assay on UACC-62, in the assay with CAKI-1, with SK-MEL-2 and with SNB-75 was > 100 µM (inactive) in each case. The GI50 in the assay with EKVX is > 100 µM (inactive); in the assay on SK-OV-3, > 100 µM (inactive); in the assay with HOP-92, > 100 µM (inactive); in the assay with M14, > 100 µM (inactive); in the assay with HCT-15 it was over 100 µM; with MOLT-4, > 100 µM (inactive). Besides, the GI50 with SW-620, in the assay on NCI-H460, with A549, in the assay on NCI-H23, in the assay with HCC 2998 and with Malme-3M was > 100 µM (inactive) each time.
